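In this assay, cells in 96-well plates receive the compound at five concentrations for 48 hours. Endpoints are linearly interpolated between the surrounding concentrations. At the GI50, growth is halved. At the TGI there is no net growth.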
What was measured:
Experiment in all cases: NCI anticancer screen, dose series, 48 h
RPMI-8226 leukemia = system: RPMI-8226 leukemia
SNB-75 CNS = system: SNB-75 CNS
HL-60(TB) leukemia = system: HL-60(TB) leukemia
SNB-19 CNS = system: SNB-19 CNS
U251 CNS = system: U251 CNS
ACHN renal = system: ACHN renal
MDA-MB-435 = system: MDA-MB-435
PC-3 prostate = system: PC-3 prostate
KM12 colon = system: KM12 colon
CCRF-CEM leukemia = system: CCRF-CEM leukemia
UO-31 renal = system: UO-31 renal
RXF 393 renal = system: RXF 393 renal
HCT-15 colon = system: HCT-15 colon
A549 NSCLC = system: A549 NSCLC
786-0 renal = system: 786-0 renal
UACC-257 melanoma = system: UACC-257 melanoma
MCF7 breast = system: MCF7 breast
SF-268 CNS = system: SF-268 CNS
EKVX NSCLC = system: EKVX NSCLC
MOLT-4 leukemia = system: MOLT-4 leukemia
NCI-H522 lung = system: NCI-H522 lung
OVCAR-8 ovarian = system: OVCAR-8 ovarian
M14 melanoma = system: M14 melanoma
SK-MEL-2 melanoma = system: SK-MEL-2 melanoma
SK-MEL-5 melanoma = system: SK-MEL-5 melanoma
HOP-62 NSCLC = system: HOP-62 NSCLC
IGROV1 ovarian = system: IGROV1 ovarian
UACC-62 melanoma = system: UACC-62 melanoma
K-562 leukemia = system: K-562 leukemia
TK-10 renal = system: TK-10 renal
MALME-3M melanoma = system: MALME-3M melanoma
MDA-MB-231 breast = system: MDA-MB-231 breast
DU-145 prostate = system: DU-145 prostate
LOX IMVI melanoma = system: LOX IMVI melanoma
HT29 colon = system: HT29 colon
SF-295 CNS = system: SF-295 CNS
OVCAR-5 ovarian = system: OVCAR-5 ovarian
COLO 205 colon = system: COLO 205 colon
HCC-2998 colon = system: HCC-2998 colon
OVCAR-4 ovarian = system: OVCAR-4 ovarian
NCI-H460 lung = system: NCI-H460 lung
CAKI-1 renal = system: CAKI-1 renal
A498 renal = system: A498 renal
HS 578T breast = system: HS 578T breast
NCI-H226 lung = system: NCI-H226 lung
SN12C renal = system: SN12C renal
NCI/ADR-RES ovarian = system: NCI/ADR-RES ovarian
BT-549 breast = system: BT-549 breast
SF-539 CNS = system: SF-539 CNS
T-47D breast = system: T-47D breast
OVCAR-3 ovarian = system: OVCAR-3 ovarian
SR leukemia = system: SR leukemia
SK-MEL-28 melanoma = system: SK-MEL-28 melanoma
SK-OV-3 ovarian = system: SK-OV-3 ovarian
HCT-116 colon = system: HCT-116 colon
HOP-92 NSCLC = system: HOP-92 NSCLC
SW-620 colon = system: SW-620 colon
NCI-H23 lung = system: NCI-H23 lung
MDA-N = system: MDA-N

Cc1ccc2c(C(C[N+](=O)[O-])c3ccccc3)c(-c3ccccc3)[nH]c2c1 (stereo not given)
GI50 (RPMI-8226 leukemia): 36.8 µM | TGI (RPMI-8226 leukemia): > 95 µM | GI50 (SNB-75 CNS): 2.87 µM | TGI (SNB-75 CNS): 43.6 µM | GI50 (HL-60(TB) leukemia): 22.6 µM | TGI (HL-60(TB) leukemia): 57.2 µM | GI50 (SNB-19 CNS): 43.7 µM | TGI (SNB-19 CNS): > 95 µM | GI50 (U251 CNS): 32 µM | TGI (U251 CNS): > 95 µM | GI50 (ACHN renal): 57.2 µM | TGI (ACHN renal): > 95 µM | GI50 (MDA-MB-435): 4.1 µM | TGI (MDA-MB-435): 29.2 µM | GI50 (PC-3 prostate): 20.9 µM | TGI (PC-3 prostate): > 95 µM | GI50 (KM12 colon): 21.6 µM | TGI (KM12 colon): > 95 µM | GI50 (CCRF-CEM leukemia): 25.2 µM | TGI (CCRF-CEM leukemia): > 95 µM | GI50 (UO-31 renal): 15.4 µM | TGI (UO-31 renal): > 95 µM | GI50 (RXF 393 renal): 10.5 µM | TGI (RXF 393 renal): 81.3 µM | GI50 (HCT-15 colon): 20.7 µM | TGI (HCT-15 colon): > 95 µM | GI50 (A549 NSCLC): 18 µM | TGI (A549 NSCLC): > 95 µM | GI50 (786-0 renal): 40.3 µM | TGI (786-0 renal): > 95 µM | GI50 (UACC-257 melanoma): 29.3 µM | TGI (UACC-257 melanoma): > 95 µM | GI50 (MCF7 breast): 13.5 µM | TGI (MCF7 breast): > 95 µM | GI50 (SF-268 CNS): 73.3 µM | TGI (SF-268 CNS): > 95 µM | GI50 (EKVX NSCLC): 75.9 µM | TGI (EKVX NSCLC): > 95 µM | GI50 (MOLT-4 leukemia): 34 µM | TGI (MOLT-4 leukemia): > 95 µM | GI50 (NCI-H522 lung): 3.17 µM | TGI (NCI-H522 lung): > 95 µM | GI50 (OVCAR-8 ovarian): 33 µM | TGI (OVCAR-8 ovarian): > 95 µM | GI50 (M14 melanoma): 16 µM | TGI (M14 melanoma): > 95 µM | GI50 (SK-MEL-2 melanoma): 46.3 µM | TGI (SK-MEL-2 melanoma): > 95 µM | GI50 (SK-MEL-5 melanoma): 50.6 µM | TGI (SK-MEL-5 melanoma): > 95 µM | GI50 (HOP-62 NSCLC): 34.2 µM | TGI (HOP-62 NSCLC): > 95 µM | GI50 (IGROV1 ovarian): 13.4 µM | TGI (IGROV1 ovarian): > 95 µM | GI50 (UACC-62 melanoma): 14.1 µM | TGI (UACC-62 melanoma): > 95 µM | GI50 (K-562 leukemia): 7.14 µM | TGI (K-562 leukemia): > 95 µM | GI50 (TK-10 renal): > 95 µM | TGI (TK-10 renal): > 95 µM | GI50 (MALME-3M melanoma): 10.2 µM | TGI (MALME-3M melanoma): > 95 µM | GI50 (MDA-MB-231 breast): 35.9 µM | TGI (MDA-MB-231 breast): > 95 µM | GI50 (DU-145 prostate): 34 µM | TGI (DU-145 prostate): > 95 µM | GI50 (LOX IMVI melanoma): 38.2 µM | TGI (LOX IMVI melanoma): > 95 µM | GI50 (HT29 colon): 20.9 µM | TGI (HT29 colon): > 95 µM | GI50 (SF-295 CNS): 36.7 µM | TGI (SF-295 CNS): > 95 µM | GI50 (OVCAR-5 ovarian): 85.3 µM | TGI (OVCAR-5 ovarian): > 95 µM | GI50 (COLO 205 colon): 21.8 µM | TGI (COLO 205 colon): > 95 µM | GI50 (HCC-2998 colon): 73.7 µM | TGI (HCC-2998 colon): > 95 µM | GI50 (OVCAR-4 ovarian): 42.4 µM | TGI (OVCAR-4 ovarian): > 95 µM | GI50 (NCI-H460 lung): 30.1 µM | TGI (NCI-H460 lung): > 95 µM | GI50 (CAKI-1 renal): 4.73 µM | TGI (CAKI-1 renal): > 95 µM | GI50 (A498 renal): 24.9 µM | TGI (A498 renal): > 95 µM | GI50 (HS 578T breast): 16.8 µM | TGI (HS 578T breast): 94.3 µM | GI50 (NCI-H226 lung): 62.4 µM | TGI (NCI-H226 lung): > 95 µM | GI50 (SN12C renal): 44.1 µM | TGI (SN12C renal): > 95 µM | GI50 (NCI/ADR-RES ovarian): 14.2 µM | TGI (NCI/ADR-RES ovarian): > 95 µM | GI50 (BT-549 breast): 34 µM | TGI (BT-549 breast): > 95 µM | GI50 (SF-539 CNS): 22.8 µM | TGI (SF-539 CNS): > 95 µM | GI50 (T-47D breast): 26.4 µM | TGI (T-47D breast): > 95 µM | GI50 (OVCAR-3 ovarian): 16.3 µM | TGI (OVCAR-3 ovarian): > 95 µM | GI50 (SR leukemia): 4.54 µM | TGI (SR leukemia): > 95 µM | GI50 (SK-MEL-28 melanoma): > 95 µM | TGI (SK-MEL-28 melanoma): > 95 µM | GI50 (SK-OV-3 ovarian): 33.8 µM | TGI (SK-OV-3 ovarian): > 95 µM | GI50 (HCT-116 colon): 30.2 µM | TGI (HCT-116 colon): > 95 µM | GI50 (HOP-92 NSCLC): 11.8 µM | TGI (HOP-92 NSCLC): > 95 µM | GI50 (SW-620 colon): 16.6 µM | TGI (SW-620 colon): > 95 µM | GI50 (NCI-H23 lung): 47 µM | TGI (NCI-H23 lung): > 95 µM

[N-]=[N+]=NCN1C(=O)C2C3C=CC(C2C1=O)C1C2C(=O)N(CN=[N+]=[N-])C(=O)C2C31 (stereo not given)
TGI (RPMI-8226 leukemia): > 100 µM | TGI (SNB-19 CNS): > 100 µM | TGI (MDA-N): > 100 µM | TGI (ACHN renal): > 100 µM | TGI (MDA-MB-435): > 100 µM | TGI (PC-3 prostate): > 100 µM | TGI (KM12 colon): > 100 µM | TGI (UO-31 renal): > 100 µM | TGI (HCT-15 colon): > 100 µM | TGI (A549 NSCLC): > 100 µM | TGI (786-0 renal): > 100 µM | TGI (UACC-257 melanoma): > 100 µM | TGI (MCF7 breast): > 100 µM | TGI (SF-268 CNS): > 100 µM | TGI (EKVX NSCLC): > 100 µM | TGI (NCI-H522 lung): > 100 µM | TGI (OVCAR-8 ovarian): > 100 µM | TGI (M14 melanoma): > 100 µM | TGI (SK-MEL-2 melanoma): > 100 µM | TGI (SK-MEL-5 melanoma): > 100 µM | TGI (HOP-62 NSCLC): > 100 µM | TGI (IGROV1 ovarian): > 100 µM | TGI (UACC-62 melanoma): > 100 µM | TGI (K-562 leukemia): > 100 µM | TGI (TK-10 renal): > 100 µM | TGI (DU-145 prostate): > 100 µM | TGI (LOX IMVI melanoma): > 100 µM | TGI (HT29 colon): > 100 µM | TGI (SF-295 CNS): > 100 µM | TGI (COLO 205 colon): > 100 µM | TGI (HCC-2998 colon): 69.8 µM | TGI (NCI-H460 lung): > 100 µM | TGI (CAKI-1 renal): > 100 µM | TGI (HS 578T breast): > 100 µM | TGI (SN12C renal): > 100 µM | TGI (NCI/ADR-RES ovarian): > 100 µM | TGI (SF-539 CNS): > 100 µM | TGI (T-47D breast): > 100 µM | TGI (OVCAR-3 ovarian): > 100 µM | TGI (SK-MEL-28 melanoma): > 100 µM | TGI (HCT-116 colon): > 100 µM | TGI (HOP-92 NSCLC): > 100 µM | TGI (SW-620 colon): > 100 µM | TGI (NCI-H23 lung): > 100 µM

From PubChem BioAssay (NCI)
